Measured values published in patent US11377441B2, “Covalent inhibitors of KRAS” (Araxes Pharma LLC, priority 2017, dated 2022).

Molecular target: T1, KRAS G12C 1-169, his-tagged protein, GDP-loaded (Homo sapiens, UniProt P01116, G12C)
T1 construct: KRAS G12C 1-169, his-tagged protein, GDP-loaded
Test: Biochemical assay: covalent modification of KRAS G12C measured by mass spectrometry (RapidFire/TOF or Q-Exactive)
Assay type: binding
Conditions: covalent binding to (modification of) KRAS G12C after a ten minute incubation period
Procedure, shortened: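 GDP-loaded KRAS G12C 1-169 (his-tagged) at 2 μM or 0.5 μM in 20 mM Hepes, 150 mM NaCl, 1 mM MgCl2, incubated with compound at 100, 30 or 10 μM at room temperature for 10 min, 30 min, 2 h or 24 h, then quenched with formic acid. Intact-protein LC-MS, deconvolved; percent modification from modified versus unmodified protein.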

SMILES	Binding %
C=CC(=O)N1CCN(c2nc(N3CC(N(C)C)C3)nc3c(F)c(-c4c(C)ccc5cnn(C)c45)c(Cl)cc23)C[C@H]1C (atropisomer, axis not shown) [Compound 144, 1-((R)-4-((R)-6-chloro-7-(1,6-dimethyl-1H-indazol-7-yl)-2-(3-(dimethylamino)azetidin-1-yl)-8-fluoroquinazolin-4-yl)-2-methylpiperazin-1-yl)prop-2-en-1-one]	+++ (+++ indicates binding activity greater than 80%)
C=CC(=O)N1C[C@H](C)N(c2nc(OCCN3CC(F)(F)C3)nc3c(F)c(-c4c(C)ccc5cnn(C)c45)c(Cl)cc23)C[C@H]1C (atropisomer, axis not shown) [Compound 146, 1-((2R,5S)-4-((S)-6-chloro-2-(2-(3,3-difluoroazetidin-1-yl)ethoxy)-7-(1,6-dimethyl-1H-indazol-7-yl)-8-fluoroquinazolin-4-yl)-2,5-dimethylpiperazin-1-yl)prop-2-en-1-one]	+ (+ indicates binding activity greater than 0% and up to 50%)
C=CC(=O)N1C[C@H](C)N(c2nc(OCCN3CC(F)(F)C3)nc3c(F)c(-c4c(C)ccc5cnn(C)c45)c(Cl)cc23)C[C@H]1C (atropisomer, axis not shown) [Compound 147, 1-((2R,5S)-4-((R)-6-chloro-2-(2-(3,3-difluoroazetidin-1-yl)ethoxy)-7-(1,6-dimethyl-1H-indazol-7-yl)-8-fluoroquinazolin-4-yl)-2,5-dimethylpiperazin-1-yl)prop-2-en-1-one]	+++ (+++ indicates binding activity greater than 80%)
C=CC(=O)N1C[C@H](C)N(c2nc(N3CC(N(C)C)C3)nc3c(F)c(-c4c(C)ccc5cnn(C6CC6)c45)c(Cl)cc23)C[C@H]1C (atropisomer, axis not shown) [Compound 149, 1-((2R,5S)-4-((S)-6-chloro-7-(1-cyclopropyl-6-methyl-1H-indazol-7-yl)-2-(3-(dimethylamino)azetidin-1-yl)-8-fluoroquinazolin-4-yl)-2,5-dimethylpiperazin-1-yl)prop-2-en-1-one]	+ (+ indicates binding activity greater than 0% and up to 50%)
C=CC(=O)N1C[C@H](C)N(c2nc(N3CC(N(C)C)C3)nc3c(F)c(-c4c(C)ccc5cnn(C6CC6)c45)c(Cl)cc23)C[C@H]1C (atropisomer, axis not shown) [Compound 150, 1-((2R,5S)-4-((R)-6-chloro-7-(1-cyclopropyl-6-methyl-1H-indazol-7-yl)-2-(3-(dimethylamino)azetidin-1-yl)-8-fluoroquinazolin-4-yl)-2,5-dimethylpiperazin-1-yl)prop-2-en-1-one]	+++ (+++ indicates binding activity greater than 80%)
C=CC(=O)N1[C@H](C)CN(c2nc(N3CC(N(C)C)C3)nc3c(F)c(-c4c(C)ccc5[nH]nc(C)c45)c(Cl)cc23)C[C@@H]1C (atropisomer, axis not shown) [Compound 151, 1-((2S,6R)-4-((S)-6-chloro-7-(3,5-dimethyl-1H-indazol-4-yl)-2-(3-(dimethylamino)azetidin-1-yl)-8-fluoroquinazolin-4-yl)-2,6-dimethylpiperazin-1-yl)prop-2-en-1-one]	+ (+ indicates binding activity greater than 0% and up to 50%)
C=CC(=O)N1[C@H](C)CN(c2nc(N3CC(N(C)C)C3)nc3c(F)c(-c4c(C)ccc5[nH]nc(C)c45)c(Cl)cc23)C[C@@H]1C (atropisomer, axis not shown) [Compound 152, 1-((2S,6R)-4-((R)-6-chloro-7-(3,5-dimethyl-1H-indazol-4-yl)-2-2(3-(dimethylamino)azetidin-1-yl)-8-fluoroquinazolin-4-yl)-2,6-dimethylpiperazin-1-yl)prop-2-en-1-one]	+++ (+++ indicates binding activity greater than 80%)
C=CC(=O)N1C[C@H](C)N(c2nc(OCCCN(C)C)nc3c(F)c(-c4c(C)ccc5cnn(C)c45)c(Cl)cc23)C[C@H]1C (atropisomer, axis not shown) [Compound 153, 1-((2R,5S)-4-((S)-6-chloro-7-(1,6-dimethyl-1H-indazol-7-yl)-2-(3-(dimethylamino)pro-poxy)-8-fluoroquinazolin-4-yl)-2,5-dimethylpiperazin-1-yl)prop-2-en-1-one]	+ (+ indicates binding activity greater than 0% and up to 50%)
C=CC(=O)N1C[C@H](C)N(c2nc(OCCCN(C)C)nc3c(F)c(-c4c(C)ccc5cnn(C)c45)c(Cl)cc23)C[C@H]1C (atropisomer, axis not shown) [Compound 154, 1-((2R,5S)-4-((R)-6-chloro-7-(1,6-dimethyl-1H-indazol-7-yl)-2-(3-(dimethylamino)pro-poxy)-8-fluoroquinazolin-4-yl)-2,5-dimethylpiperazin-1-yl)prop-2-en-1-one]	+++ (+++ indicates binding activity greater than 80%)
C=CC(=O)N1C[C@H](C)N(c2nc(N3CC(N(C)C)C3)nc3c(F)c(-c4c(F)ccc5cnn(C)c45)c(Cl)cc23)C[C@H]1C (atropisomer, axis not shown) [Compound 155, 1-((2R,5S)-4-((R)-6-chloro-2-(3-(dimethylamino)azetidin-1-yl)-8-fluoro-7-(6-fluoro-1-methyl-1H-indazol-7-yl)quinazolin-4-yl)-2,5-dimethylpiperazin-1-yl)prop-2-en-1-one]	+ (+ indicates binding activity greater than 0% and up to 50%)
C=CC(=O)N1C[C@H](C)N(c2nc(N3CC(N(C)C)C3)nc3c(F)c(-c4c(F)ccc5cnn(C)c45)c(Cl)cc23)C[C@H]1C (atropisomer, axis not shown) [Compound 156, 1-((2R,5S)-4-((S)-6-chloro-2-(3-(dimethylamino)azetidin-1-yl)-8-fluoro-7-(6-fluoro-1-methyl-1H-indazol-7-yl)quinazolin-4-yl)-2,5-dimethylpiperazin-1-yl)prop-2-en-1-one]	+++ (+++ indicates binding activity greater than 80%)
C=CC(=O)N1C[C@H](C)N(c2nc(OC3CCN(C(C)C)CC3)nc3c(F)c(-c4c(C)ccc5cnn(C)c45)c(Cl)cc23)C[C@H]1C (atropisomer, axis not shown) [Compound 166, 1-((2R,5S)-4-((S)-6-chloro-7-(1,6-dimethyl-1H-indazol-7-yl)-8-fluoro-2-(1-isopropylpiperidin-4-yloxy)quinazolin-4-yl)-2,5-dimethylpiperazin-1-yl)prop-2-en-1-one]	+ (+ indicates binding activity greater than 0% and up to 50%)
C=CC(=O)N1C[C@H](C)N(c2nc(OC3CCN(C(C)C)CC3)nc3c(F)c(-c4c(C)ccc5cnn(C)c45)c(Cl)cc23)C[C@H]1C (atropisomer, axis not shown) [Compound 167, 1-((2R,5S)-4-((R)-6-chloro-7-(1,6-dimethyl-1H-indazol-7-yl)-8-fluoro-2-(1-isopropylpiperidin-4-yloxy)quinazolin-4-yl)-2,5-dimethylpiperazin-1-yl)prop-2-en-1-one]	+++ (+++ indicates binding activity greater than 80%)
C=CC(=O)N1C[C@H](C)N(c2nc(OCCN3CCN(C)CC3)nc3c(F)c(-c4c(C)ccc5cnn(C)c45)c(Cl)cc23)C[C@H]1C (atropisomer, axis not shown) [Compound 168, 1-((2R,5S)-4-((S)-6-chloro-7-(1,6-dimethyl-1H-indazol-7-yl)-8-fluoro-2-(2-(4-methylpiperazin-1-yl)ethoxy)quinazolin-4-yl)-2,5-dimethylpiperazin-1-yl)prop-2-en-1-one]	+ (+ indicates binding activity greater than 0% and up to 50%)
